Experimental data published in patent US20050100998A1 (priority 2000, published 2005).
“Also recorded” adds a separate entry of the source.

Assays:
HL-60 cells = assay: RT-PCR of UMP-CMP kinase expression and phenotype in differentiating HL-60 cells; format: cell-based, human; details: HL-60 cells treated with differentiating agent
Text: The possibility that UMP-CMP kinase was developmentally regulated as monocytes proceed toward the macrophage phenotype was also investigated. To assess this, human monocytes were isolated and cultered for 10 days as they differentiated into macrophages. RNA was isolated on the day of cell plating and then throughout the culture period. […] These cells are monocytic, but differentiate into macrophage-like cells in the presence of phorbol-12-myristate-13-acetate (PMA) (Murao et al., 1983; Rovera et al., 1979), or into neutrophils in the presence of DMSO (Collins et al., 1975). […] These changes included adhesion and altered cell shape. No change in UMP-CMP kinase expression was detected, however, when assayed by RT-PCR. […] Similarly, no change was detected after DMSO treatment.
Because the cDNA had been cloned from a macrophage library, it was also considered possible that UMP-CMP kinase expression might be developmentally regulated as monocytes proceed toward the macrophage phenotype. To evaluate this possibility, Human monocytes were isolated and cultured for 10 days as they differentiated into macrophages. […] In order to confirm this conclusion, HL-60 cells were employed. […] Similarly, no change in this message was detected after DMSO treatment (data not shown).

UMP-CMP kinase [1] = biological target: T1, UMP-CMP kinase (Homo sapiens, UniProt P30085); assay: Enzymatic activity assay (NMP phosphorylation, TLC of radiolabelled products); format: biochemical; details: for ability of the NTP to act as phosphate donor (CDP formed), in words: NTP varied; for phosphorylation of the NMP as substrate (phosphate acceptor), in words: lysates of transfected cells vs vector-transfected cells, FIG. 5A
T1 construct: This cDNA codes for a predicted 196 amino-acid protein; expressed in transfected cells; host or cells: HEK 293 or COS-7 cells transiently transfected with pRc/CMV carrying the UMP-CMP kinase cDNA; crude lysate used
T1 sequence (P30085 1-196): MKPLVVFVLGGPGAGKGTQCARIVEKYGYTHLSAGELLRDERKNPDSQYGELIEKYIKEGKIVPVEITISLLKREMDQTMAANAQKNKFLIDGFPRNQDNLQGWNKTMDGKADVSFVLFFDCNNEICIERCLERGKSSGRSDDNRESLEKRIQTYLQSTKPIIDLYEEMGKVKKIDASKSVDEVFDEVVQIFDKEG
Protocol: Tests were conducted on the enzyme produced by the cDNA.
Since many NMP kinases phosphorylate multiple types of NMPs with varying relative kinetics, a variety of NMPs were tested as substrates.
The most preferred phosphate donor of the kinase was next investigated. […] The amount of CDP formed indicates the ability of each NTP to act as a phosphate donor.
Cell lysates (25 μg total protein) prepared as described for Western blot were added to the following reaction mixture: 83 mM tris-HCl (pH 8.0), 3.3 mM MgCl2, 0.17 M KCl, 6.7 mM NTP, 6.7 mM NMP and 0.1 μCi of the indicated [^3H]-NU (60.4 mCi/mmol). The reaction was carried out at 37° C. for 6 min and terminated with an equal volume of 2 M formic acid. Unlabeled NDP was added (6.7 mM final concentration) and the reactions were dried under a steam of nitrogen. The products were resuspended in distilled H2O and analyzed by thin layer chromatography.
Chromatography was performed by ascending development (dry start) in closed plexiglass chambers at room temperature using 0.25 M KH2PO4 (pH 3.4) as described previously. […] The products were visualized under UV light and identified by co-migration with authentic nucleotides. Spots corresponding to different nucleotides were scraped from the plate and radioactive reaction products were quantified with a multi-purpose liquid scintillation counter.

UMP-CMP kinase [2] = biological target: T1, UMP-CMP kinase; details: Mol. Pharmacol. 56:562-569 (1999), ATP as donor, 30 min; cited from earlier work
[3] = varying Mg^2+ concentrations, FIG. 4

For `C[S+](C)[O-]` [DMSO], the “change in UMP-CMP kinase expression by RT-PCR” value (HL-60 cells) was “no change”.
In the case of `[Mg+2]` [Mg^2+], the “Mg^2+ concentration giving maximal UMP-CMP kinase activity” value (UMP-CMP kinase [1]; [3]) is reported as 3 mM and the “effect of Mg^2+ on UMP-CMP kinase activity, in words” value (UMP-CMP kinase [1]; [3]) is reported as “increases UMP-CMP kinase activity in a concentration-dependent manner”.
In the case of `Nc1ncnc2c1ncn2[C@@H]1O[C@H](COP(=O)(O)OP(=O)(O)OP(=O)(O)O)[C@@H](O)[C@H]1O` [ATP], the “ability of the NTP to act as phosphate donor (CDP formed), in words” value (UMP-CMP kinase [1]; CMP as substrate, FIG. 5B) is reported as “preferred as phosphate donors over CTP and GTP” and the “phosphorylation of the NMP as substrate (phosphate acceptor), in words” value (shortened to “phosphorylation of the NMP as substrate”) (UMP-CMP kinase [1]) is reported as “Modest”.
For `O=c1ccn([C@@H]2O[C@H](COP(=O)(O)OP(=O)(O)OP(=O)(O)O)[C@@H](O)[C@H]2O)c(=O)[nH]1` [UTP], the “ability of the NTP to act as phosphate donor (CDP formed), in words” value (UMP-CMP kinase [1]; CMP as substrate, FIG. 5B) was “preferred as phosphate donors over CTP and GTP”.
For `O=c1ccn([C@@H]2O[C@H](COP(=O)(O)O)[C@@H](O)[C@H]2O)c(=O)[nH]1` [UMP], the “phosphorylation by the kinase as reported by Van Rompay et al.” value (shortened to “phosphorylation by the kinase”) (UMP-CMP kinase [2]) is listed as “efficiently phosphorylated” and the “phosphorylation of the NMP as substrate” value (UMP-CMP kinase [1]) is listed as “prefers”.
In the case of `Nc1ccn([C@@H]2O[C@H](COP(=O)(O)O)[C@@H](O)[C@@H]2O)c(=O)n1` [CTP], the “reaction efficiency as phosphate donor relative to ATP or UTP” value (UMP-CMP kinase [1]; CMP as substrate, FIG. 5B) is reported as “half and approximately half”.
For `Nc1ccn([C@H]2C[C@H](O)[C@@H](COP(=O)(O)O)O2)c(=O)n1` [dCMP], the “phosphorylation by the kinase” value (UMP-CMP kinase [2]) is listed as “efficiently phosphorylated”.
In the case of `Nc1ncnc2c1ncn2[C@@H]1O[C@H](COP(=O)(O)O)[C@@H](O)[C@H]1O` [AMP], the “phosphorylation of the NMP as substrate” value (UMP-CMP kinase [1]) is reported as “only slightly”.
For `Nc1nc2c(ncn2[C@@H]2O[C@H](COP(=O)(O)O)[C@@H](O)[C@H]2O)c(=O)[nH]1` [GMP], the “phosphorylation of the NMP as substrate” value (UMP-CMP kinase [1]) was “unable to phosphorylate”.
For `CCCCCCCCCCCCCC(=O)O[C@@H]1[C@@H](C)[C@@]2(O)[C@@H](C=C(CO)C[C@]3(O)C(=O)C(C)=C[C@@H]23)[C@@H]2C(C)(C)[C@]12OC(C)=O` [PMA, phorbol-12-myristate-13-acetate], the “change in UMP-CMP kinase expression by RT-PCR” value (HL-60 cells) was “No change” and the “phenotypic change of HL-60 cells” value (HL-60 cells) was “altered the HL-60 cell phenotype from a suspension cell to an adherent cell; also recorded: induced phenotypic changes”.
In the case of `Nc1ccn([C@@H]2O[C@H](COP(=O)(O)O)[C@@H](O)[C@H]2O)c(=O)n1` [CMP, Cytidine Monophosphate], the “phosphorylation by the kinase” value (UMP-CMP kinase [2]) is listed as “efficiently phosphorylated”, the “reaction efficiency in the presence of CMP relative to UMP” value (UMP-CMP kinase [1]) is listed as “three-fold greater reaction efficiency” and the “phosphorylation of the NMP as substrate” value (UMP-CMP kinase [1]) is listed as “prefers”.
